The values below come from US6903218B2, “Sulfonamide substituted chroman derivatives” (Bayer Pharmaceuticals Corporation, priority 1997, dated 2005).

For `O=c1n(CCCC2CCCC2)nnn1-c1ccc(NS(=O)(=O)c2ccc3c(c2)CCC(CNC[C@H](O)c2cccnc2)O3)cc1` (stereo partly shown) (hydrate or solvate), the melting point lay in the range of 93 to 95 °C.

Regarding `O=c1n(CCCC2CCCC2)ccn1-c1ccc(NS(=O)(=O)c2ccc3c(c2)CCC(CNC[C@H](O)c2cccnc2)O3)cc1` (stereo in doubt), the melting point lay within 90 to 92 °C.

In turn, `CC(C)c1ccc(NS(=O)(=O)c2ccc3c(c2)CCC(CNC[C@H](O)c2cccnc2)O3)cc1` (stereo in doubt) (hydrate or solvate) gave a melting point of 104 to 106 °C.

The molecule `Nc1ccc([C@@H](O)CNC[C@@H]2CCc3cc(S(=O)(=O)Nc4ccc(-n5nnn(CCCC6CCCC6)c5=O)cc4)ccc3O2)cn1` showed a melting point of 99.3 to 99.7 °C.

As to `Nc1ccc([C@@H](O)CNC[C@H]2CCc3cc(NS(=O)(=O)c4ccc(-n5nnn(CCCC6CCCCC6)c5=O)cc4)ccc3O2)cn1`, the melting point lay in the range of 94 to 95 °C.

As to `Nc1ccc([C@@H](O)CNCC2CCc3cc(S(=O)(=O)Nc4ccc(Cl)cc4)ccc3O2)cn1` (stereo in doubt), the melting point was 95 °C (dec.).

In the case of `O=c1n(CCCC2CCCC2)nnn1-c1ccc(NS(=O)(=O)c2ccc3c(c2)CCC(CN(C[C@H](O)c2cccc(Cl)c2)C[C@H](O)c2cccc(Cl)c2)O3)cc1` (stereo partly shown) (hydrate or solvate), the melting point was 110 to 115 °C (dec.).

The melting point is the temperature of the solid-liquid transition.
